The test system of data set [1] is carrageenan-induced paw edoema. Kind of data set: Carrageenan-induced rat paw edoema. Format: in vivo, Wistar albino rats. The conditions noted are these: rat, 50 mg/kg oral; for % of edoema inhibition (% mean ± SEM), 1 h: 1 h after carrageenan; for % of edoema inhibition (% mean ± SEM), 2 h: 2 h after carrageenan; for % of edoema inhibition (% mean ± SEM), 3 h: 3 h after carrageenan; for % of edoema inhibition (% mean ± SEM), 4 h: 4 h after carrageenan. The protocol: The anti-inflammatory activity of the inspiring active compounds in vitro (4c, 4d, 6a, 6c, 6d and 6e) were further estimated in vivo using the carrageenan-induced paw edoema test. […] The paw thickness was assessed using Vernier calliper after carrageenan injection for 1,2, 3 and 4 h. Wistar albino rats (males weighing 120–140 g, six rats per group) were grouped as follows: Group 1 (Control) rats were received the vehicle. […] The percentage inhibition of edoema thickness was calculated at each time interval in comparison to the control group.

The test system of data set [2] is LPS-induced NO production in RAW 264.7 cells. Nature of the data set: Griess assay for NO release from LPS-stimulated RAW 264.7 cells. The data set is classed as cell-based. The conditions noted are these: Mus musculus, RAW264.7; for inhibition at 5 µM: compounds at 5 µM, 2 h before LPS, RAW 264.7 cells, read-out: NO Inhibition rates (%) ± SD; for IC50: LPS-induced RAW 264.7 cells. The protocol:
Equal volumes of Griess reagent and the supernatant, obtained from treated RAW264.7 cells with the compounds 2 h before LPS induction, were mixed for 10 min at room temperature in the dark. The absorbance was measured at 540 nm using ELISA plate reader and the nitrite concentration was calculated from sodium nitrite standard curve. The percentage inhibition (%) is calculated as absorbance at 540 nm of (LPS-compounds)/absorbance at 540 nm of (LPS-control) ×100[47]^,[48].
In general terms: Griess reagent forms a coloured azo dye with nitrite.

Data set [3] relates to COX-2. Nature of the data set: In vitro COX-2 inhibition assay (Cayman kit). Format: biochemical, bovine. Conditions: selectivity index from COX 1 and COX 2 IC50.
For data set [4], the system named is PGE2 production in RAW 264.7 cells. Kind of data set: PGE2 concentration by ELISA in LPS-treated RAW 264.7 cells. The conditions noted are these: Mus musculus, RAW264.7; LPS-induced RAW 264.7 cells. Format: cell-based. The protocol: After seeding and incubation of RAW 264.7 cells for 24 h, then the cells were treated with the compounds (4c, 4d, 6a, 6c, 6d and 6e) at different concentrations and with LPS (1 µg/ml) for another 24 h. The concentration of prostaglandin E2 (PGE2) was measured in the culture media using ELISA kit (R&D Systems, Minneapolis, MN)[50].
On the technique in general: ELISA stands for enzyme-linked immunosorbent assay.

Data set [5] has as its target T1, iNOS (Mus musculus, UniProt P29477).
T1 construct: endogenous in cells; host or cells: RAW 264.7 cells induced with LPS
T1 sequence (P29477 1-1144): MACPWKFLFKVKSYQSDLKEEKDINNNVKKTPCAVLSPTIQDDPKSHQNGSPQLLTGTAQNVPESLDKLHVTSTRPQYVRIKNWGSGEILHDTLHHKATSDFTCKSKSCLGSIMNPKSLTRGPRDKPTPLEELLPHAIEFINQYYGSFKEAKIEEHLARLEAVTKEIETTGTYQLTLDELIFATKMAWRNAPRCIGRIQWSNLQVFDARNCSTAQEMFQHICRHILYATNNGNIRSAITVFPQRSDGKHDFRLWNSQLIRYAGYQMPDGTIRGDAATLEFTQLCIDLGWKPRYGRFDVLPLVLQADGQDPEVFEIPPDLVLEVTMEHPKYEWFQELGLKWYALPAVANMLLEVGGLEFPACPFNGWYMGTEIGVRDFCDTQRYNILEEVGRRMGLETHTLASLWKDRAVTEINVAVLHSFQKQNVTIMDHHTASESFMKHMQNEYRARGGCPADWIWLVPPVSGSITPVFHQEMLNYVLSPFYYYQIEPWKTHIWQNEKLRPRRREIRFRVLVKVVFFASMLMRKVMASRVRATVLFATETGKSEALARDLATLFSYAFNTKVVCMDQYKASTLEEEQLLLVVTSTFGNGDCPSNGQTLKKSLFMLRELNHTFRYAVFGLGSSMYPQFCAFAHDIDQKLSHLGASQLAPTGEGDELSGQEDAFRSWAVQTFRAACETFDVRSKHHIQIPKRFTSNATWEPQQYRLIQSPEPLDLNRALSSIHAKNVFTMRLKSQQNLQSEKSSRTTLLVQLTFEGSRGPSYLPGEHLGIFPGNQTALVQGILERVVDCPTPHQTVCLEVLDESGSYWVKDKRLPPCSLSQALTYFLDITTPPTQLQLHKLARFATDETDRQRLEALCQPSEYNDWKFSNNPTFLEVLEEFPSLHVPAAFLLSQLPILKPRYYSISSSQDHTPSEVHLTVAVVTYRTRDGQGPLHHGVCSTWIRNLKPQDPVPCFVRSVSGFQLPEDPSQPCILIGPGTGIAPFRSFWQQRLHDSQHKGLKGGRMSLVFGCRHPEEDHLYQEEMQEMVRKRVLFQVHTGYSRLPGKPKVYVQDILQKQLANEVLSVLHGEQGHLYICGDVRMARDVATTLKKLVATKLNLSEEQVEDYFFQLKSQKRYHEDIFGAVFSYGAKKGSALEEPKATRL
Nature of the data set: iNOS enzymatic activity in LPS-induced RAW 264.7 cells. The data set is classed as cell-based. The protocol:
Then, the NOS assay reaction solution (100 µl/well) was added and incubated for an extra 2 h at 37 °C. The fluorescence with excitation wavelength at 485 nm and emission wavelength at 528 nm was measured using a fluorescent microplate reader.

Data set [6] can be described thus: MTT cytotoxicity assay on RAW 264.7 cells. The data set is classed as cell-based. The conditions noted are these: mouse; for IC50 at 20 h: with LPS; for IC50: without LPS. The protocol:
MTT assay was used to assess the cell viability of RAW 264.7 cells cultured in RPMI-1640 complete media. […] Afterwards, 5 µl of MTT solution were added and incubated for further 4 h. Finally, 150 ul of dimethyl sulfoxide (DMSO) were added and the optical density was assessed at 570 nm using an ELISA plate reader.

Data set [7] concerns the target T2, bovine COX-1 (Ovis aries, UniProt P05979).
T2 construct: purchased Cayman Chemical 560101
T2 sequence (P05979 25-600): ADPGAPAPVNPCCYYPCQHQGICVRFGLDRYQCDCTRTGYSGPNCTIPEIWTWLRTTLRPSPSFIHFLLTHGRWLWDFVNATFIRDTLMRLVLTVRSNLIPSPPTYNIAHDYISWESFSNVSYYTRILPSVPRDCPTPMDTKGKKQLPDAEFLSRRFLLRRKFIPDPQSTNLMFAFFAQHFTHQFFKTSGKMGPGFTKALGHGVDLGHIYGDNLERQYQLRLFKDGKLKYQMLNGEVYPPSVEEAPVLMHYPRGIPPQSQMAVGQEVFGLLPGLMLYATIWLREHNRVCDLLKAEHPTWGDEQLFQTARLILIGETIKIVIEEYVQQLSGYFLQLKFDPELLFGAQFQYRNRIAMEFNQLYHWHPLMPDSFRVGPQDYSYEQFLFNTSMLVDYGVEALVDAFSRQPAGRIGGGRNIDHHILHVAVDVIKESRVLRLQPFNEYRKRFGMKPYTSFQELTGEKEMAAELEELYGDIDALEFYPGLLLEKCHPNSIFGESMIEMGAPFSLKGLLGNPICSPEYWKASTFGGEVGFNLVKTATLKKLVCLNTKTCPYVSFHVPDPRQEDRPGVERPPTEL
Nature of the data set: In vitro COX-1 inhibition assay (Cayman kit). The data set is classed as biochemical.

[8] abbreviates: listed as indomethacin, 50 mg/kg.

“And” between values parts separate entries of the source, which are not always exact repeats. Equal values may be shown once. Some results are limits rather than exact numbers.

In the case of `Cc1ccc(-c2cc(C(F)(F)F)nn2-c2ccc(S(N)(=O)=O)cc2)cc1` [Celecoxib, reference compound], in data set [1], the “% of edoema inhibition (% mean ± SEM), 1 h” value is recorded as 10.61 ± 2.59%; the “% of edoema inhibition (% mean ± SEM), 2 h” value was found to be 25.43 ± 3.29%; the “% of edoema inhibition (% mean ± SEM), 3 h” value was 46.42%. Also, in data set [1] (50 mg/kg), the “% of edoema inhibition (% mean ± SEM), 3 h” value worked out at 46.42 ± 2.87% and the “% of edoema inhibition (% mean ± SEM), 4 h” value was found to be 12.32 ± 2.42%. The “% of edoema inhibition (% mean ± SEM), 4 h” value in data set [1] (listed as celecoxib, 50 mg/kg) amounted to 12.32%.
The compound `COc1ccc(/C=C/C(=O)c2ccc(OCC(=O)O/N=C(\N)c3ccccc3)cc2)cc1` [Compound 4a, N’-(2-{4-[(2E)-3-(4-Methoxyphenyl)prop-2-enoyl]phenoxy}acetoxy) benzenecarboximidamide] returned a melting point of 164 to 166 °C. Moreover, the inhibition at 5 µM in data set [2] was 41.9 ± 1.4%.
The corresponding values for `COc1ccc(/C=C/C(=O)c2ccc(OCC(=O)ON=C(N)c3ccc(Cl)cc3)cc2)cc1` [Compound 4b, N’-(2-{4-[(2E)-3-(4-Methoxyphenyl)prop-2-enoyl]phenoxy}acetoxy)-4-chlorobenzenecarboximidamide] are 180 to 182 °C and 47.6 ± 3.6%.
Take `COc1ccc(/C=C/C(=O)c2ccc(OCC(=O)ON=C(N)c3ccc(OC)cc3)cc2)cc1` [Compound 4c, N’-(2-{4-[(2E)-3-(4-Methoxyphenyl)prop-2-enoyl]phenoxy}acetoxy)-4-methoxybenzenecarboximidamide]: in data set [1], the “% of edoema inhibition (% mean ± SEM), 1 h” value is given as 11.21 ± 2.41% and the “% of edoema inhibition (% mean ± SEM), 2 h” value was 33.62 ± 2.69%. In data set [1] (50 mg/kg), the “% of edoema inhibition (% mean ± SEM), 3 h” value is 57.71% and 57.71 ± 2.21%; the “% of edoema inhibition (% mean ± SEM), 4 h” value was 69.86% and 69.86 ± 3.51%. Further, in data set [3], the SI worked out at 6.06. In data set [4], this compound gave an IC50 of 0.0323 µM. In data set [5], this compound came in with an IC50 of 3.62 µM. Also, in data set [6], the IC50 at 20 h is above 80 µM and the IC50 was above 80 µM. The compound further gave an IC50 in data set [7] of 19.9 ± 1.03 µM. Also, in data set [2], the IC50 came out at 8.61 µM and the inhibition at 5 µM was determined as 62.3 ± 1.9%.
Turning to `COc1ccc(/C=C/C(=O)c2ccc(OCC(=O)ON=C(N)c3ccc(OC)c(OC)c3)cc2)cc1` [Compound 4d, N’-(2-{4-[(2E)-3-(4-Methoxyphenyl)prop-2-enoyl]phenoxy}acetoxy)-3,4-dimethoxybenzenecarboximidamide], in data set [1], the “% of edoema inhibition (% mean ± SEM), 1 h” value is listed as 11.65 ± 2.26%; the “% of edoema inhibition (% mean ± SEM), 2 h” value is given as 34.78 ± 3.34%; the “% of edoema inhibition (% mean ± SEM), 4 h” value is listed as 54.21 ± 3.47%. In addition, in data set [1] (50 mg/kg), the “% of edoema inhibition (% mean ± SEM), 3 h” value is 69.5% and 69.50 ± 1.49%. In data set [3], this compound returned an SI of 0.25. For the same compound, the IC50 in data set [4] amounted to 0.0247 µM. The compound also came in with an IC50 in data set [5] of 2.22 µM. In data set [6], this compound came in with an IC50 at 20 h above 80 µM and an IC50 above 80 µM. Further, the IC50 in data set [7] was determined as 5.82 ± 0.3 µM. For the same compound, in data set [2], it took 5.73 µM to reach half-maximal inhibition (IC50) and the inhibition at 5 µM stood at 73.5 ± 2.1%.
With `COc1ccc(/C=C/C(=O)c2ccc(OCC(=O)ON=C(N)c3ccc([N+](=O)[O-])cc3)cc2)cc1` [Compound 4e, N’-(2-{4-[(2E)-3-(4-Methoxyphenyl)prop-2-enoyl]phenoxy}acetoxy)-4-nitrobenzenecarboximidamide], the melting point fell in the range of 184 to 186 °C. Also, the “% of edoema inhibition (% mean ± SEM), 3 h” value in data set [1] came to 39.26%. Further, the inhibition at 5 µM in data set [2] was 44.1 ± 2.8%.
In the case of `COc1ccc(/C=C/C(=O)c2ccc(OCC(=O)O/N=C(\N)c3ccc4ccccc4c3)cc2)cc1` [Compound 4f, N’-(2-{4-[(2E)-3-(4-Methoxyphenyl)prop-2-enoyl]phenoxy}acetoxy) naphthalene-2-carboximidamide], the melting point lay within 176 to 178 °C. Besides, in data set [2], the inhibition at 5 µM stood at 31.2 ± 2.2%.
On the same counts, the results for `COc1ccc(C(=O)/C=C/c2ccc(OCC(=O)ON=C(N)c3ccc(Cl)cc3)cc2)cc1` [Compound 6b, N’-(2-{4-[(1E)-3-(4-Methoxyphenyl)-3-oxoprop-1-en-1-yl]phenoxy}acetoxy) -4-chlorobenzenecarboximidamide] are 192 to 193 °C and 49.6 ± 2.3%.
On the same counts, the results for `COc1ccc(C(=O)/C=C/c2ccc(OCC(=O)O/N=C(\N)c3ccc4ccccc4c3)cc2)cc1` [Compound 6f] are 178 to 179 °C and 29.4 ± 2.5%.
Take `COc1ccc2c(c1)c(CC(=O)O)c(C)n2C(=O)c1ccc(Cl)cc1` [Indomethacin, reference compound]: in data set [1], the “% of edoema inhibition (% mean ± SEM), 1 h” value is given as 28.03 ± 1.35% and the “% of edoema inhibition (% mean ± SEM), 2 h” value stood at 45.27 ± 2.48%. In addition, in data set [1] (50 mg/kg), the “% of edoema inhibition (% mean ± SEM), 3 h” value is given as 63.71 ± 3.48% and the “% of edoema inhibition (% mean ± SEM), 4 h” value stood at 56.27 ± 2.14%. Also, in data set [1] (setting [8]), the “% of edoema inhibition (% mean ± SEM), 3 h” value amounted to 63.71% and the “% of edoema inhibition (% mean ± SEM), 4 h” value is 56.27%. In data set [4], this compound yielded an IC50 of 0.0766 µM. The IC50 in data set [5] worked out at 24.6 µM. Moreover, in data set [6], the IC50 at 20 h was above 80 µM and the IC50 was above 80 µM. In data set [2], the IC50 was 45.7 µM and the inhibition at 5 µM was found to be 25.5%.

The melting point is the temperature of the solid-liquid transition. Usually inhibition stands for how much of the control response was suppressed. The IC50 is the concentration needed to halve the response being measured. Lower therefore signals greater potency.

The values above are taken from publication PMC8158245, “Novel chalcone/aryl carboximidamide hybrids as potent anti-inflammatory via inhibition of prostaglandin E2 and inducible NO synthase activities: design, synthesis, molecular docking studies and ADMET prediction” (Journal of Enzyme Inhibition and Medicinal Chemistry, 2021).
